Assay in all cases: ≥ marks a high value that may be exact or a test limit, other limits are often not marked, values filed in µg/mL are converted to µM
The subject of assay [1] is Pseudomonas aeruginosa 5167.
Assay [2] concerns Pseudomonas aeruginosa 1570.
The test system of assay [3] is Candida albicans CCARM 14004.
The subject of assay [4] is Candida parapsilosis CCARM 14016.
Assay [5] deals with Candida krusei CCARM 14017.
In assay [6] the test system is Trichophyton rubrum KCTC 6345.
The subject of assay [7] is Fusarium verticillioides KCTC 6149.
The test system of assay [8] is Trichoderma viride KCTC 16992.
Assay [9] has as its system Fusarium graminearum KCTC 16656.
Assay [10] concerns Fusarium oxysporum KCTC 16909.
For assay [11], the system named is Candida albicans KCTC 7270.
For assay [12], the system named is Candida albicans CCARM 14020.
Assay [13] relates to Colletotrichum gloeosporioides KCTC 6169.
Assay [14] deals with Candida albicans CCARM 14001.
The subject of assay [15] is Trichoderma virens KCTC 16924.
Assay [16] has as its system Fusarium solani KCTC 6326.
The subject of assay [17] is Candida albicans CCARM 14007.
In assay [18] the test system is Aspergillus flavus KCTC 6905.
The test system of assay [19] is Candida albicans ATCC 10231.
Assay [20] has as its system Candida parapsilosis CBS 604.
Assay [21] relates to Saccharomyces cerevisiae SZMC 0644.
Assay [22] has as its system Candida krusei CBS 573.
In assay [23] the test system is Penicillium digitatum PHI-26.
Assay [24] deals with Candida albicans ATCC 64550.
The test system of assay [25] is Xanthomonas vesicatoria 2133-2.
Assay [26] has as its system Fusarium oxysporum f. sp. lycopersici ATCC 201829.
The subject of assay [27] is Penicillium expansum EPS 26.
Assay [28] deals with Escherichia coli DH5alpha.
Assay [29] deals with Rhizopus stolonifer CECT 2344.
For assay [30], the system named is Pseudomonas syringae EPS 94.
In assay [31] the test system is Aspergillus niger CECT 2694.
Assay [32] has as its system Saccharomyces cerevisiae FY1679.
Assay [33] has as its system Erwinia amylovora PMV 6076.
The subject of assay [34] is Staphylococcus aureus CCARM 3089.
Assay [35] deals with Staphylococcus aureus CCARM 3090.
Assay [36] deals with Staphylococcus aureus CCARM 3095.
For assay [37], the system named is Bacillus subtilis KCTC 3068.
Assay [38] relates to Salmonella typhimurium KCTC 1926.
In assay [39] the test system is Staphylococcus epidermidis KCTC 1917.
Assay [40] concerns Pseudomonas aeruginosa CCARM 2095.
Assay [41] relates to Pseudomonas aeruginosa KCTC 1637.
For assay [42], the system named is Pseudomonas aeruginosa CCARM 2109.
In assay [43] the test system is Enterococcus faecium ATCC 51559.
Assay [44] has as its system Staphylococcus aureus LAC.
In assay [45] the test system is Escherichia coli ATCC 25922.
Assay [46] deals with Pseudomonas syringae pv. syringae EPS 94.
The subject of assay [47] is Xanthomonas campestris pv. Vesicatoria 2133-2.
For assay [48], the system named is Pseudomonas syringae pv. actinidiae Psa3700.1.1.
Assay [49] relates to Xanthomonas arboricola pv. pruni CFBP 5563.
Assay [50] deals with Xanthomonas fragariae Xf349-9A.

The values below come from DBAASP.

In brackets after ≈: the same amount, converted by molar mass.

As a reminder, the MIC is the least concentration at which growth counts as inhibited. High values mean weaker potency, low ones greater potency.

On to `CC(C)C[C@H](NC(=O)[C@H](CC(C)C)NC(=O)[C@H](CCCCN)NC(=O)[C@H](CCCCN)NC(=O)[C@H](CC(C)C)NC(=O)[C@H](CC(C)C)NC(=O)[C@H](C)NC(=O)[C@H](CC(C)C)NC(=O)[C@@H](N)Cc1ccccc1)C(N)=O` [FLALLKKLL], for which the results for the MIC in assay [1] and in assay [2] were ≥ 42.8 µM and 10.7 µM (≈ 11.3 µg/mL), respectively.
As to `NCCCC[C@H](NC(=O)[C@H](CCCCN)NC(=O)[C@H](Cc1cnc[nH]1)NC(=O)[C@H](CCCCN)NC(=O)[C@H](CCCCN)NC(=O)[C@@H](N)Cc1cnc[nH]1)C(N)=O` [HKKHKK], the MIC in assay [3] is ≥ 64 µM; in [4] it was ≥ 64 µM; in [5] it was ≥ 64 µM; in [6], ≥ 64 µM; in [7], ≥ 32 µM; in assay [8] it was ≥ 64 µM. Further, the minimal inhibitory concentration (MIC) in assay [9] was ≥ 64 µM; in assay [10] it was ≥ 64 µM; in assay [11], ≥ 64 µM; in assay [12] it was ≥ 64 µM; in assay [13], 16 µM (≈ 12.9 µg/mL); in assay [14], ≥ 64 µM. For the same compound, the MIC was ≥ 32 µM in assay [15], ≥ 32 µM in assay [16], ≥ 64 µM in assay [17] and ≥ 64 µM in assay [18].
Turning to `CC[C@H](C)[C@H](N)C(=O)N[C@@H](C)C(=O)N[C@H](C(=O)N[C@@H](CO)C(=O)N1CCC[C@H]1C(=O)N[C@@H](Cc1ccc(O)cc1)C(=O)N[C@@H](Cc1ccc(O)cc1)C(=O)N[C@@H](C)C(=O)N[C@H]1CSSC[C@@H](C(=O)O)NC(=O)CNC(=O)[C@H](CO)NC(=O)CNC(=O)[C@H](CCCCN)NC(=O)[C@H](CCCCN)NC(=O)[C@H](Cc2cnc[nH]2)NC(=O)[C@H](CCCCN)NC(=O)[C@@H]2CSSC[C@H](NC(=O)[C@H](CC(N)=O)NC1=O)C(=O)N1CCC[C@H]1C(=O)N[C@@H](CC(N)=O)C(=O)N[C@@H](CC(N)=O)C(=O)N2)[C@@H](C)O` [IATSPYYACNCPNNCKHKKGSGC], the MIC in assay [19], in assay [20], in assay [21] and in assay [22] was 20.3 µM (≈ 49.9 µg/mL) each time.
`CC[C@H](C)[C@H](NC(=O)[C@H](CCCCN)NC(=O)[C@H](CCCCN)NC(=O)[C@H](Cc1ccccc1)NC(=O)[C@H](CC(C)C)NC(=O)[C@H](CCCCN)NC(=O)[C@@H](N)CCCCN)C(=O)N[C@@H](CC(C)C)C(=O)N[C@@H](CCCCN)C(=O)N[C@@H](Cc1ccccc1)C(=O)N[C@@H](CC(C)C)C(N)=O` [KKLFKKILKFL]: the minimal inhibitory concentration (MIC) is 4 µM (≈ 5.62 µg/mL) in [23]; 25 µM (≈ 35.1 µg/mL) in assay [24]; 3.16 µM (≈ 4.44 µg/mL) in [25]; 0.849 µM (≈ 1.19 µg/mL) in assay [26]; ≥ 35.4 µM in assay [27]; 4 µM (≈ 5.62 µg/mL) in [28]. Moreover, the MIC in assay [29] is ≥ 35.4 µM; in [30], 3.16 µM (≈ 4.44 µg/mL); in assay [31] it was 22.4 µM (≈ 31.4 µg/mL); in assay [32], 16 µM (≈ 22.5 µg/mL); in assay [33], 3.16 µM (≈ 4.44 µg/mL).
Regarding `C[C@H](NC(=O)[C@H](CCCCN)NC(=O)[C@H](Cc1ccc(O)cc1)NC(=O)[C@H](Cc1c[nH]c2ccccc12)NC(=O)[C@H](CCCCN)NC(=O)[C@H](CCCCN)NC(=O)[C@H](Cc1ccccc1)NC(=O)[C@H](CCCN=C(N)N)NC(=O)[C@@H](N)CCCCN)C(=O)N[C@@H](Cc1c[nH]c2ccccc12)C(=O)N[C@@H](CCCN=C(N)N)C(=O)N[C@@H](CCCCN)C(=O)N[C@@H](CCCCN)C(=O)N[C@@H](Cc1c[nH]c2ccccc12)C(=O)N[C@@H](CCCN=C(N)N)C(=O)N[C@@H](CCCCN)C(=O)N[C@@H](Cc1ccc(O)cc1)C(N)=O` [KRFKKWYKAWRKKWRKY], the MIC in assay [34] is 2 µM (≈ 4.97 µg/mL); in assay [35], 2 µM (≈ 4.97 µg/mL); in assay [36] it was 2 µM (≈ 4.97 µg/mL); in assay [37], 4 µM (≈ 9.94 µg/mL); in [38], 1 µM (≈ 2.49 µg/mL); in assay [39], 2 µM (≈ 4.97 µg/mL). Further, the MIC was determined as 4 µM (≈ 9.94 µg/mL) in assay [40], 2 µM (≈ 4.97 µg/mL) in assay [41], 4 µM (≈ 9.94 µg/mL) in [42] and 2 µM (≈ 4.97 µg/mL) in assay [43].
As for `CC(C)C[C@H](NC(=O)[C@H](CC(C)C)NC(=O)[C@H](CC(C)C)NC(=O)[C@@H](N)CC(C)C)C(=O)N[C@@H](CCCN=C(N)N)C(=O)N[C@@H](CCCN=C(N)N)C(=O)N[C@@H](CCCN=C(N)N)C(=O)N[C@@H](CCCN=C(N)N)C(=O)O` [LLLLRRRR], the minimum inhibitory concentration (MIC) in [44] is ≥ 117 µM; in assay [45] it was > 117 µM.
For the compound `CC[C@H](C)[C@H](NC(=O)CNC(=O)[C@@H](N)Cc1ccc(O)cc1)C(=O)N[C@@H](Cc1cnc[nH]1)C(=O)N[C@H](C(=O)N[C@@H](Cc1cnc[nH]1)C(N)=O)[C@@H](C)O` [YGIHTH], the minimum inhibitory concentration (MIC) in assay [46], in assay [47], in [48], in assay [49], in assay [50] and in assay [33] was ≥ 50 µM throughout.
